Experiments:
human NaP2b (SLC34A2) = target: T1, human NaP2b (SLC34A2) (Homo sapiens, UniProt O95436); assay: Inhibition of NaP2b-mediated Pi (33P) uptake in transfected HEK293 cells, human NaP2b; type: cell-based; settings: read-out: pIC50 range for human NaP2b (converted)
T1 construct: host or cells: HEK293
T1 sequence (O95436 1-690): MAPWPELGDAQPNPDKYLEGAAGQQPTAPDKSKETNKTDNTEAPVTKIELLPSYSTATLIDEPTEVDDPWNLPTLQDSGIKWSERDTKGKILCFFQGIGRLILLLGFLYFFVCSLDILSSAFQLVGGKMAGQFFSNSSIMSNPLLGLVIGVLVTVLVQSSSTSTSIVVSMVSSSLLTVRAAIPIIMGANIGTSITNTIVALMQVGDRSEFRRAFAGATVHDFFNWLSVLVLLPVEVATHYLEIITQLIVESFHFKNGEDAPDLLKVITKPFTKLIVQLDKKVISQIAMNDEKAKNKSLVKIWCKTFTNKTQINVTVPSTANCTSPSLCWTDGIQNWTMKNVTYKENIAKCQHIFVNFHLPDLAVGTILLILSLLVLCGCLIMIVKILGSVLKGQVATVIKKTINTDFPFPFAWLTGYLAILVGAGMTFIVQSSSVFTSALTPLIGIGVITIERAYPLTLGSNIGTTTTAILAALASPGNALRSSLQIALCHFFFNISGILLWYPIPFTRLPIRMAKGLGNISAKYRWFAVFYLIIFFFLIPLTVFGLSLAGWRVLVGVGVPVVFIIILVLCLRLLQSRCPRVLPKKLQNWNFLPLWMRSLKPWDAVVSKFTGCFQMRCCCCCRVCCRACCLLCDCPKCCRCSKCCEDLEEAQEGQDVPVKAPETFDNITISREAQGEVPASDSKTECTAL
How it was run: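 HEK293 cells transiently transfected with human NaP2b (Thr inserted after residue 37, N39D), endogenous PiT transport pharmacologically silenced. Sodium or choline buffer, pH 7.4, with 100 uM KH2PO4, 33P orthophosphate and compound (0.1 nM–30 uM, twelve concentrations, duplicate). 3-30 min at room temperature, scintillation counting, pIC50 derived.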

rat NaP2b (SLC34A2) = target: T2, rat NaP2b (SLC34A2) (Rattus norvegicus, UniProt Q9JJ09); assay: Inhibition of NaP2b-mediated Pi (33P) uptake in transfected HEK293 cells, rat NaP2b; type: cell-based; settings: 33P Pi uptake, 0.1 mM phosphate, value given as pIC50 range
T2 construct: host or cells: HEK293
T2 sequence (Q9JJ09 1-695): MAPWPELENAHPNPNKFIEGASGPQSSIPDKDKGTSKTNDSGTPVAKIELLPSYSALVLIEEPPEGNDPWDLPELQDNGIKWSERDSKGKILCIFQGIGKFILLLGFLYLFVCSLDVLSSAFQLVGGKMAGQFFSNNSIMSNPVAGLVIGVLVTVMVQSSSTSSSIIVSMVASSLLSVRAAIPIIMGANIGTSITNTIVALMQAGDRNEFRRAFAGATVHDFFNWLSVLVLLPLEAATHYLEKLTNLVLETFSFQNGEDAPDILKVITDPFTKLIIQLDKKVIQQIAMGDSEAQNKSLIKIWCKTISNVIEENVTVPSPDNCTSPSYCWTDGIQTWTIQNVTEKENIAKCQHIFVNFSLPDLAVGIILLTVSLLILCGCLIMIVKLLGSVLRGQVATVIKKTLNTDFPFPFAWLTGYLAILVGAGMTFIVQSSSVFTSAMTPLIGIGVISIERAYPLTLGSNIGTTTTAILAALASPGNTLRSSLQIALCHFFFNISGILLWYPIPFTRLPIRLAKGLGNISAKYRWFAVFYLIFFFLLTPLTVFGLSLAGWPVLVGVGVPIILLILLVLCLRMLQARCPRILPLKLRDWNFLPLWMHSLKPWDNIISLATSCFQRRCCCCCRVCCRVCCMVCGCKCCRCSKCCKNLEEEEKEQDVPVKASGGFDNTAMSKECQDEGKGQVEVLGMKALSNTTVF
How it was run: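 HEK293 cells were transiently transfected with NaP2b cDNA using Lipofectamine and grown near confluence. Compounds were tested at twelve concentrations from 0.1 nM to 30 uM in duplicate, and 33P-phosphate uptake was counted by scintillation after lysis. Results are expressed as pIC50.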

[1] = Determination of compound Cmax and AUC after oral gavage (plasma LC-MS/MS); type: in vivo, Sprague-Dawley rats; settings: Sprague-Dawley, rat, plasma, po, Structure (I) examples
How it was run: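 Sprague-Dawley rats dosed by oral gavage at nominal 2.5 or 10 mg/kg; blood drawn at 0.5, 1, 2 and 4 h into K2EDTA. Plasma protein-precipitated with acetonitrile plus internal standard and analysed by LC-MS/MS against a plasma standard curve to derive Cmax and AUC.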

[2] = Stability of compounds in simulated intestinal fluid (SIF); type: in vitro ADME; settings: simulated intestinal fluid (3 mg/mL pancreatin), incubation time 6 hr, relative to t=0
How it was run: (§1)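 Compounds at […] were incubated 3 or 6 hr in USP simulated gastric fluid with 3 mg/mL pepsin or simulated intestinal fluid with 3 mg/mL pancreatin. Remaining compound was quantified by HPLC-UV or HPLC-MS peak area % and reported as percent of the t=0 level in the same medium.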

[3] = Stability of compounds in simulated gastric fluid (SGF); type: in vitro ADME; settings: simulated gastric fluid (3 mg/mL pepsin), incubation time 6 hr, relative to t=0
How it was run: as §1

[4] = Table 15, actual oral dose 3-15 mg/kg, plasma 0.5-4 h
[5] = Table 15, actual oral dose 15-40 mg/kg, plasma 0.5-4 h

Row | SMILES | IC50 (human NaP2b (SLC34A2)) [nM] | IC50 (rat NaP2b (SLC34A2)) [nM] | AUC [1, 4] [ng·h/mL] | Cmax [1, 4] [ng/mL] | % remaining, SIF [2] | % remaining, SGF [3] | AUC [1, 5] [ng·h/mL] | Cmax ([1]; Table 15, plasma 0.5-4 h) [ng/mL]
1 | CN(CCCN1CCOCC1)C(=O)c1cccc(C(=O)Nc2ccc(N3CCCCC3)cc2-c2cc(C(=O)N[C@H]3CCCc4ccccc43)ccn2)c1 [Example 126, (S)—N1-methyl-N1-(3-morpholinopropyl)-N3-(4-(piperidin-1-yl)-2-(4-(1,2,3,4-tetrahydronaphthalen-1-ylcarbamoyl)pyridin-2-yl)phenyl)isophthalamide] | 1000 to 7940 | < 1000 | < 30 | < 10 | >80% | >80% | – | –
2 | CCN(CC)c1ccc(NC(=O)c2cccc(CSCCOCCOCCOCCOCCC(=O)NC(CO)(CO)CO)c2)c(-c2cc(C(=O)N[C@H]3CCCc4ccccc43)ccn2)c1 [Example 158, (S)-2-(5-(diethylamino)-2-(3-(20-hydroxy-19,19-bis(hydroxymethyl)-17-oxo-5,8,11,14-tetraoxa-2-thia-18-azaicosyl)benzamido)phenyl)-N-(1,2,3,4-tetrahydronaphthalen-1-yl)isonicotinamide] | < 1000 | < 1000 | < 10 | < 10 | 20-40% | >80% | – | –
3 | CCN(CC)c1ccc(NC(=O)c2cccc(CSCCOCCOCCOCCOCCC(=O)N(CCO)CCO)c2)c(-c2cc(C(=O)N[C@H]3CCCc4ccccc43)ccn2)c1 [Example 160, (S)-2-(5-(diethylamino)-2-(3-(20-hydroxy-18-(2-hydroxyethyl)-17-oxo-5,8,11,14-tetraoxa-2-thia-18-azaicosyl)benzamido)phenyl)-N-(1,2,3,4-tetrahydronaphthalen-1-yl)isonicotinamide] | < 1000 | < 1000 | < 10 | < 10 | 40-60% | >80% | – | –
4 | CCN(CC)c1ccc(NC(=O)c2cccc(COCCOCCOCCOCCOCCOCCO)c2)c(-c2cc(C(=O)NCc3cccc(C(F)(F)F)c3)ccn2)c1 [Example 168, 2-(5-(diethylamino)-2-(3-(19-hydroxy-2,5,8,11,14,17-hexaoxanonadecyl)benzamido)phenyl)-N-(3-(trifluoromethyl)benzyl)isonicotinamide] | < 1000 | < 1000 | < 30 | < 10 | >80% | >80% | – | –
5 | CCN(CC)c1ccc(NC(=O)c2cccc(C(=O)N(C)CCN3CCC[C@H]3C(=O)NCCOCCOCCOCCOCCOCCOCCOCCOC)c2)c(-c2cc(C(=O)N[C@H]3CCCc4ccccc43)ccn2)c1 [Example 196, N^1-(2-((S)-2-(2,5,8,11,14,17,20,23-octaoxapentacosan-25-ylcarbamoyl)pyrrolidin-1-yl)ethyl)-N^3-(4-(diethylamino)-2-(4-(((S)-1,2,3,4-tetrahydronaphthalen-1-yl)carbamoyl)pyridin-2-yl)phenyl)-N-methylisophthalamide] | 1000 to 7940 | 1000 to 7940 | > 50 | > 50 | >80% | >80% | – | –
6 | CN(CCOCCOCCOCCC(=O)O)C(=O)Cc1cccc(SCc2cccc(C(=O)Nc3ccc(Cl)cc3-c3cc(C(=O)N[C@H]4CCCc5ccccc54)ccn3)c2)c1 [Example 239, (S)-1-(3-(3-(4-chloro-2-(4-(1,2,3,4-tetrahydronaphthalen-1-ylcarbamoyl)pyridin-2-yl)phenylcarbamoyl)benzylthio)phenyl)-3-methyl-2-oxo-6,9,12-trioxa-3-azapentadecan-15-oic acid] | < 1000 | < 1000 | – | – | >80% | 60-80% | < 30 | < 30
7 | O=C(O)CCOCCOCCOCCOCCCc1cccc(C(=O)Nc2ccc(Cl)cc2-c2cc(C(=O)N[C@H]3CCCc4ccccc43)ccn2)c1 [Example 253, (S)-16-(3-(4-(chloro)-2-(4-(1,2,3,4-tetrahydronaphthalen-1-ylcarbamoyl)pyridin-2-yl)phenylcarbamoyl)phenyl)-4,7,10,13-tetraoxahexadecan-1-oic acid] | < 1000 | < 1000 | – | – | >80% | 60-80% | < 10 | < 10
8 | COCCNC(=O)[C@H]1CCCN(C(=O)c2cccc(C(=O)Nc3ccc(N4CCCCC4)cc3-c3cc(C(=O)N[C@H]4CCCc5ccccc54)ccn3)c2)C1 [Example 254, 2-(2-(3-((S)-3-(2-methoxyethylcarbamoyl)piperidine-1-carbonyl)benzamido)-5-(piperidin-1-yl)phenyl)-N—((S)-1,2,3,4-tetrahydronaphthalen-1-yl)isonicotinamide] | < 1000 | < 1000 | < 10 | < 10 | >80% | >80% | – | –
9 | CCN(CC)c1ccc(NC(=O)c2cccc(CCCOCCOCCOCCOCCC(=O)NC(CO)(CO)CO)c2)c(-c2cc(C(=O)NCc3cccc(C(F)(F)F)c3)ccn2)c1 [Example 281] | < 1000 | < 1000 | < 10 | < 10 | 20-40% | >80% | – | –
10 | CCN(CC)c1ccc(NC(=O)c2cccc(C(=O)N(C)CCN(C)CCOCCOCCOCCNC(=O)OC(C)(C)C)c2)c(-c2cc(C(=O)N[C@H]3CCCc4ccccc43)ccn2)c1 [Example 339, (S)-tert-Butyl 1-(3-(4-(diethylamino)-2-(4-(1,2,3,4-tetrahydronaphthalen-1-ylcarbamoyl)pyridin-2-yl)phenylcarbamoyl)phenyl)-2,5-dimethyl-1-oxo-8,11,14-trioxa-2,5-diazahexadecan-16-ylcarbamate] | < 1000 | < 1000 | < 30 | < 10 | >80% | <20% | – | –

Reference: US20140023611A1 (priority 2010, published 2014)
